From ChEMBL document CHEMBL2016451, “Antimycobacterial activity of bisbenzylisoquinoline alkaloids from Tiliacora triandra against multidrug-resistant isolates of Mycobacterium tuberculosis” (Bioorg Med Chem Lett, 2012) come the findings set out here.

For data set [1], the system named is MRC5. Briefly: Cytotoxicity against human MRC5 cells by MTT assay. The format is cell-based. (In general: Tetrazolium dyes change colour on reduction, which living cells bring about.)
Data set [2] concerns Mycobacterium tuberculosis. In words: Antimycobacterial activity against p-aminosalicylic acid-resistant Mycobacterium tuberculosis H37Rv ATCC 35821 after 16 to 24 hrs by alamar blue assay. The format is functional. In general terms: Resazurin is reduced to fluorescent resorufin, in cell work by metabolically active cells.
Data set [3] concerns MRC5. Briefly: Cytotoxicity against human MRC5 cells at 2.1 ug/ml by MTT assay. The format is cell-based.
Data set [4] deals with Mycobacterium tuberculosis. In words: Antimycobacterial activity against Mycobacterium tuberculosis H37Rv after 16 to 24 hrs by alamar blue assay. The format is functional.
In data set [5] the test system is Mycobacterium tuberculosis. In words: Antimycobacterial activity against Mycobacterium tuberculosis H37Ra after 16 to 24 hrs by alamar blue assay. The format is functional.
The subject of data set [6] is MRC5. Briefly: Cytotoxicity against human MRC5 cells at 2 ug/ml by MTT assay. The format is cell-based.
Data set [7] relates to MRC5. Briefly: Cytotoxicity against human MRC5 cells at 1 ug/ml by MTT assay. The format is cell-based.
Data set [8] has as its system MRC5. In words: Cytotoxicity against human MRC5 cells at 6 ug/ml by MTT assay. The format is cell-based.

Usually IC50 stands for the concentration that inhibits the measured activity by half. Broadly, the MIC is the smallest concentration in the dilution series that meets the test's criterion for growth inhibition. High values mean weaker potency, low ones greater potency.

≈ marks a conversion by molar mass, not a printed value.

In the data set on MRC5 [1], `COc1ccc2cc1-c1cc(ccc1O)C[C@@H]1NCCc3cc4c(cc31)Oc1c(c(OC)cc3c1[C@H](C2)N(C)CC3)O4` displayed an IC50 of 3.8 µg/mL (≈ 6.75 µM). The MIC in data set [2] worked out at 1.5 µg/mL (≈ 2.67 µM); in data set [4], 3.1 µg/mL (≈ 5.51 µM); in data set [5] it was 3.1 µg/mL (≈ 5.51 µM). Further, the Activity result with MRC5 [3], with MRC5 [6], with MRC5 [7] and in the data set on MRC5 [8] was “Non-toxic” throughout.
`COc1ccc2cc1-c1cc(cc(Br)c1O)C[C@H]1c3cc4c(cc3CCN1C)Oc1c(OC)cc3c(c1O4)[C@H](C2)N(C)CC3` gave an IC50 in the data set with MRC5 [1] of 20 µg/mL (≈ 30.5 µM). Also, the MIC was 1.5 µg/mL (≈ 2.29 µM) in data set [2], 3.1 µg/mL (≈ 4.73 µM) in data set [4] and 6.2 µg/mL (≈ 9.46 µM) in data set [5]. Besides, the Activity entry in the data set on MRC5 [3], in the data set with MRC5 [6], in the data set with MRC5 [7] and with MRC5 [8] was “Non-toxic” in each case.
In the case of `COc1ccc2cc1-c1cc(ccc1O)C[C@H]1c3cc4c(cc3CCN1C)Oc1c(OC)cc3c(c1O4)[C@@H](C2)N(C)CC3` [TILIACORINE], in the data set with MRC5 [1], the IC50 amounted to 3.87 µg/mL (≈ 6.71 µM). The MIC in data set [2], in data set [4] and in data set [5] was 3.1 µg/mL (≈ 5.38 µM) throughout. Moreover, the Activity result in the data set with MRC5 [3], in the data set on MRC5 [6], with MRC5 [7] and with MRC5 [8] was “Non-toxic” each time.
For `COc1ccc2cc1-c1cc(ccc1O)C[C@H]1c3cc4c(cc3CCN1C)Oc1c(OC)cc3c(c1O4)[C@H](C2)N(C)CC3` [TILIACORININE], the IC50 in the data set with MRC5 [1] stood at 3.13 µg/mL (≈ 5.43 µM). Further, the MIC in data set [2] was determined as 3.1 µg/mL (≈ 5.38 µM); in data set [4], 6.2 µg/mL (≈ 10.8 µM); in data set [5] it was 3.1 µg/mL (≈ 5.38 µM). For the same molecule, the Activity result with MRC5 [3], with MRC5 [6], with MRC5 [7] and in the data set with MRC5 [8] was “Non-toxic” each time.
